Values of other authors, collected in patent US20030099725A1, “Herbal compositions useful as chemopreventive and therapeutic agents and methods of manufacturing same” (priority 2001, published 2003).

System: women at high risk of breast cancer

## CC/C(=C(\c1ccccc1)c1ccc(OCCN(C)C)cc1)c1ccccc1 [Tamoxifen]
  decrease in invasive cancer versus placebo: 49%
  decrease in non-invasive breast cancer versus placebo: 50%
